From patent US20260297060A1, “COMPOUNDS FOR THE DEGRADATION OF MUTANT BRAF” (C4 THERAPEUTICS, INC., priority 2023, published 2026)
Like-named read-outs stand apart in the source and are kept apart here.

Assay: Pharmacokinetics in female BALB/c nude mice bearing A375 xenografts, 1 day dosing (PK and PD study): plasma, tumor and brain concentrations, AUC
Type: in vivo
Description: The concentrations of Dabrafenib, Compound 26 and Compound 141 in the treatment of female BALB/c nude mice bearing A375 xenografts are shown in Table 62-Table 72 and FIG. 52-FIG. 73.

[1] = 0.75 mg/kg p.o. BID × 1 day, post 2nd dose, 48 h, BQL: below the lower limit of quantitation
[2] = 1 mg/kg p.o. TID × 1 day, post 3rd dose, 48 h, BQL: below the lower limit of quantitation
[3] = Compound 141, 1.5 mg/kg p.o. BID × 1 day, post 2nd dose, 36 h, BQL: below the lower limit of quantitation
[4] = Compound 141, 1.5 mg/kg p.o. BID × 1 day, post 2nd dose, 48 h, BQL: below the lower limit of quantitation
[5] = mouse, brain, po, 0.75 mg/kg, 0.75 mg/kg p.o. BID × 1 day, post 2nd dose, read-out: Mean Concentration in Brain ± SEM
[6] = mouse, brain, po, 1 mg/kg, 1 mg/kg p.o. TID × 1 day, post 3rd dose, read-out: Mean Concentration in Brain ± SEM
[7] = mouse, brain, po, 1.5 mg/kg, Compound 141, 1.5 mg/kg p.o. BID × 1 day, post 2nd dose, read-out: Mean Concentration in Brain ± SEM
[8] = mouse, brain, po, 3 mg/kg, 3 mg/kg p.o. QD × 1 day, read-out: Mean Concentration in Brain ± SEM
[9] = mouse, brain, po, 5 mg/kg, 5 mg/kg p.o. BID × 1 day, post 2nd dose, read-out: Mean Concentration in Brain ± SEM
[10] = mouse, plasma, po, 0.75 mg/kg, 0.75 mg/kg p.o. BID × 1 day, post 1st dose, read-out: Mean Concentration in Plasma ± SEM
[11] = mouse, plasma, po, 0.75 mg/kg, 0.75 mg/kg p.o. BID × 1 day, post 2nd dose, read-out: Mean Concentration in Plasma ± SEM
[12] = mouse, plasma, po, 1 mg/kg, 1 mg/kg p.o. TID × 1 day, post 1st dose, read-out: Mean Concentration in Plasma ± SEM
[13] = mouse, plasma, po, 1 mg/kg, 1 mg/kg p.o. TID × 1 day, post 2nd dose, read-out: Mean Concentration in Plasma ± SEM
[14] = mouse, plasma, po, 1 mg/kg, 1 mg/kg p.o. TID × 1 day, post 3rd dose, read-out: Mean Concentration in Plasma ± SEM

In the case of `CCN(C)S(=O)(=O)Nc1ccc(F)c(Oc2ccc3ncn(C4CC5(CCN(C6CC7(C6)CN(c6cc8c(cc6F)c(N6CCC(=O)NC6=O)nn8C)C7)CC5)C4)c(=O)c3c2)c1C#N` (stereo not shown) [Compound 141, 6-[2-cyano-3-[[ethyl(methyl)sulfamoyl]amino]-6-fluoro-phenoxy]-3-[7-[2-[3-(2,4-dioxohexahydropyrimidin-1-yl)-5-fluoro-1-methyl-indazol-6-yl]-2-azaspiro[3.3]heptan-6-yl]-7-azaspiro[3.5]nonan-2-yl]-4-oxo-quinazoline], the “Mean Concentration in Brain ± SEM” value (0.75 mg/kg p.o. BID × 1 day, post 2nd dose, 24 h, BQL: below the lower limit of quantitation) is reported as “BQL^a”, the “Mean Concentration in Brain ± SEM” value [1] is reported as “BQL” and the “Mean Concentration in Tumor ± SEM” value [1] is reported as “BQL”. The “Mean Concentration in Brain ± SEM” value (1 mg/kg p.o. TID × 1 day, post 3rd dose, 24 h, BQL: below the lower limit of quantitation) was “BQL^a”, the “Mean Concentration in Brain ± SEM” value [2] was “BQL” and the “Mean Concentration in Plasma ± SEM” value [2] was “BQL”. The “Mean Concentration in Plasma ± SEM” value (3 mg/kg p.o. QD × 1 day, 48 h, BQL: below the lower limit of quantitation) was “BQL^a”, the “Mean Concentration in Brain ± SEM” value (5 mg/kg p.o. BID × 1 day, post 2nd dose, 24 h, BQL: below the lower limit of quantitation) was “BQL^a” and the “Mean Concentration in Brain ± SEM” value (Compound 141, 1.5 mg/kg p.o. BID × 1 day, post 2nd dose, 24 h, BQL: below the lower limit of quantitation) was “BQL^a”. For the same compound, the “Mean Concentration in Brain ± SEM” value [3] was “BQL”, the “Mean Concentration in Plasma ± SEM” value [3] was “BQL” and the “Mean Concentration in Brain ± SEM” value [4] was “BQL”. The “Mean Concentration in Plasma ± SEM” value [4] was “BQL”, the concentration at 1 h [5] was 26.7 ± 2.39 ng/g and the concentration at 4 h [5] was 10.2 ± 1.3 ng/g. The concentration at 10 h [5] was 6.61 ± 2 ng/g, the concentration at 1 h [6] was 22 ± 3.26 ng/g and the concentration at 4 h [6] was 17.9 ± 3.94 ng/g. It also gave a concentration at 10 h [6] of 14.6 ± 3.36 ng/g, a concentration at 0.25 h [7] of 11.2 ± 1.24 ng/g and a concentration at 0.5 h [7] of 25.5 ± 2.96 ng/g. The concentration at 1 h [7] was 44.1 ± 5.96 ng/g, the concentration at 2 h [7] was 39.3 ± 0.318 ng/g and the concentration at 4 h [7] was 23.5 ± 4.95 ng/g. The concentration at 10 h [7] was 3.51 ± 1.17 ng/g, the concentration at 1 h [8] was 70.5 ± 4.29 ng/g and the concentration at 4 h [8] was 37.6 ± 9.11 ng/g. The concentration at 10 h [8] was 11 ± 1.97 ng/g, the concentration at 24 h (mouse, brain, po, 3 mg/kg, 3 mg/kg p.o. QD × 1 day, 24 h, read-out: Mean Concentration in Brain ± SEM) was 3.31 ng/g and the concentration at 48 h (mouse, brain, po, 3 mg/kg, 3 mg/kg p.o. QD × 1 day, 48 h, read-out: Mean Concentration in Brain ± SEM) was 1.79 ng/g. It also gave a concentration at 1 h [9] of 126 ± 6.12 ng/g, a concentration at 4 h [9] of 52.9 ± 12.8 ng/g and a concentration at 10 h [9] of 13.1 ± 2.79 ng/g. It also gave a concentration at 48 h (mouse, brain, po, 5 mg/kg, 5 mg/kg p.o. BID × 1 day, post 2nd dose, 48 h, read-out: Mean Concentration in Brain ± SEM) of 4 ng/g, a concentration at 0.25 h [10] of 340 ± 19 ng/mL and a concentration at 0.5 h [10] of 832 ± 61.1 ng/mL. It also gave a concentration at 1 h [10] of 1070 ± 94.7 ng/mL, a concentration at 2 h [10] of 972 ± 13.5 ng/mL and a concentration at 4 h [10] of 491 ± 20.2 ng/mL. For the same compound, the concentration at 8 h [10] was 66.3 ± 5.93 ng/mL, the concentration at 12 h (mouse, plasma, po, 0.75 mg/kg, 0.75 mg/kg p.o. BID × 1 day, post 1st dose, 12 h, read-out: Mean Concentration in Plasma ± SEM) was 26.5 ± 4.92 ng/mL and the concentration at 0.25 h [11] was 297 ± 13.2 ng/mL. It also gave a concentration at 0.5 h [11] of 502 ± 84.1 ng/mL, a concentration at 1 h [11] of 778 ± 59.4 ng/mL and a concentration at 2 h [11] of 818 ± 118 ng/mL. The concentration at 4 h [11] was 247 ± 24.5 ng/mL, the concentration at 10 h [11] was 111 ± 18.4 ng/mL and the concentration at 24 h (mouse, plasma, po, 0.75 mg/kg, 0.75 mg/kg p.o. BID × 1 day, post 2nd dose, 24 h, read-out: Mean Concentration in Plasma ± SEM) was 1.09 ± 0.203 ng/mL. The concentration at 36 h (mouse, plasma, po, 0.75 mg/kg, 0.75 mg/kg p.o. BID × 1 day, post 2nd dose, 36 h, read-out: Mean Concentration in Plasma ± SEM) was 0.764 ng/mL, the concentration at 48 h (mouse, plasma, po, 0.75 mg/kg, 0.75 mg/kg p.o. BID × 1 day, post 2nd dose, 48 h, read-out: Mean Concentration in Plasma ± SEM) was 4.96 ng/mL and the concentration at 0.25 h [12] was 438 ± 25.4 ng/mL. For the same compound, the concentration at 0.5 h [12] was 836 ± 10.8 ng/mL, the concentration at 1 h [12] was 1130 ± 180 ng/mL and the concentration at 2 h [12] was 1000 ± 55.2 ng/mL. It also gave a concentration at 4 h [12] of 699 ± 129 ng/mL, a concentration at 8 h [12] of 242 ± 30.4 ng/mL and a concentration at 0.25 h [13] of 334 ± 54.7 ng/mL. The concentration at 2 h [13] was 879 ± 74.6 ng/mL, the concentration at 8 h [13] was 218 ± 16.3 ng/mL and the concentration at 0.25 h [14] was 346 ± 65.5 ng/mL. The concentration at 0.5 h [14] was 694 ± 54.4 ng/mL, the concentration at 1 h [14] was 664 ± 72 ng/mL and the concentration at 2 h [14] was 1600 ± 124 ng/mL. For the same compound, the concentration at 4 h [14] was 563 ± 173 ng/mL, the concentration at 10 h [14] was 415 ± 74.4 ng/mL and the concentration at 24 h (mouse, plasma, po, 1 mg/kg, 1 mg/kg p.o. TID × 1 day, post 3rd dose, 24 h, read-out: Mean Concentration in Plasma ± SEM) was 10.5 ± 5.67 ng/mL. It also gave a concentration at 36 h (mouse, plasma, po, 1 mg/kg, 1 mg/kg p.o. TID × 1 day, post 3rd dose, 36 h, read-out: Mean Concentration in Plasma ± SEM) of 3.2 ± 0.392 ng/mL.
